Results as given in article PMC10835127, “Viruses traverse the human proteome through peptide interfaces that can be biomimetically leveraged for drug discovery” (Proceedings of the National Academy of Sciences of the …, 2024).
Where two headings read alike, the source gives them in different places.

How the values were obtained:
HIV1 strain NL4-3 = assay type: cell-based
influenza A H1N1 virus = details: 48 hr post-treatment, A549
[1] = tested on: F. novicida (strain U112); assay type: cell-based
HCV replicon = assay type: cell-based
[2] = normalized mean of HIV1 replication readout
[3] = normalized mean of EBV replication readout
[4] = normalized mean of HCV replicon readout
[5] = normalized mean of HIV1 replication readout, peptide screen
[6] = normalized mean of EBV replication readout, peptide screen
[7] = normalized mean of HCV replicon readout, peptide screen

Substance | HIV1 Norm MEAN (HIV1 strain NL4-3; [2]) | Neuraminidase activity normalized to vehicle (influenza A H1N1 virus; 200 µM peptide) | Neuraminidase activity normalized to vehicle (influenza A H1N1 virus; 0,823 µM peptide) | Neuraminidase activity normalized to vehicle (influenza A H1N1 virus; 22,2 µM peptide) | Neuraminidase activity normalized to vehicle (influenza A H1N1 virus; 2,4691 µM peptide) | Neuraminidase activity normalized to vehicle (influenza A H1N1 virus; 7,4074 µM peptide) | Neuraminidase activity normalized to vehicle (influenza A H1N1 virus; 66,6667 µM peptide) | Francisella novicida Norm AUC [1] | EBV Norm MEAN (EBV; [3]) | HCV Norm MEAN (HCV replicon; [4]) | HIV1 Norm MEAN (HIV1 strain NL4-3; [5]) | EBV Norm MEAN (EBV; [6]) | HCV Norm MEAN (HCV replicon; [7]) | activity in HIV1 screen (in words) (HIV1 strain NL4-3; 20 µM peptide, HeLa P4 cells, β-galactosidase) | HIV1 Norm MEAN (HIV1 strain NL4-3) | EBV Norm MEAN (EBV) | HCV Norm MEAN (HCV replicon)
YFADLLI [CPEP50] | 1.681 | 0,2471 | 0,883 | 0,8095 | 0,771 | 0,9007 | 0,7183 | 0.9176 | 1.15 | 0.09464 | – | – | – | – | – | – | –
PVQES [CPEP44] | 2.9976 | 0,8825 | 0,8116 | 0,9052 | 0,843 | 0,7952 | 1,0152 | 0.7515 | 1.192 | 0.1889 | – | – | – | – | – | – | –
CPEP69: peptide of the viral peptide library; sequence page not shown (MRHIICHGGVITEE) | – | 1,1006 | 0,9574 | 1,0597 | 1,0075 | 1,0635 | 1,1613 | 1.041 | – | – | 0.7189 | 0.4275 | 0.5472 | – | – | – | –
MAGRSGDSDEELIR [CPEP91] | – | 0,8049 | 0,8065 | 0,8658 | 0,8956 | 0,8592 | 0,8689 | 1.031 | – | – | 0.2767 | 0.5729 | 0.7752 | – | – | – | –
HGCPL [CPEP33] | 0.2429 | 0,999 | 0,7063 | 0,8914 | 0,8619 | 0,7735 | 1,0094 | 0.6368 | 1.339 | 0.1691 | – | – | – | – | – | – | –
RPEPTAPPEE [CPEP116] | 0.3699 | 0,7624 | 0,9564 | 0,683 | 0,8677 | 0,7015 | 0,6644 | 0.6494 | 0.4152 | 1.054 | – | – | – | – | – | – | –
KLVTELAENS [CPEP129] | 0.8117 | 0,8014 | 1,1002 | 0,8882 | 1,0838 | 0,9983 | 0,7782 | 0.9413 | 1.255 | 0.8005 | – | – | – | – | – | – | –
CPEP135: peptide of the viral peptide library; sequence page not shown (KGHRGSHTMNGH) | 0.5949 | 0,865 | 0,9322 | 0,9598 | 0,9359 | 0,8333 | 0,9822 | 1.216 | 0.8556 | 0.5732 | – | – | – | – | – | – | –
RDVLCLRPVGAESR [CPEP94] | – | 0,3954 | 0,7797 | 0,8926 | 0,8827 | 0,8423 | 0,695 | 1.032 | – | – | 0.3822 | 0.9161 | 0.7235 | – | – | – | –
HVKNG [CPEP123] | 1.079 | 0,78 | 0,7776 | 0,8404 | 0,7299 | 0,7535 | 0,9273 | 0.9754 | 1.599 | 0.1965 | – | – | – | – | – | – | –
YASIL [CPEP21] | 2.264 | 0,9829 | 0,8221 | 0,8963 | 0,8753 | 0,7869 | 1,0057 | 0.5259 | 1.459 | 0.1905 | – | – | – | – | – | – | –
SAIASGIAVS [CPEP72] | 7.153 | 1,0607 | 1,0538 | 1,1913 | 1,1217 | 1,1419 | 1,1769 | 1.051 | 0.8997 | 1.456 | – | – | – | strongly | – | – | –
LHCYE [CPEP152] | 1.7684 | 1,0605 | 0,8889 | 0,9121 | 0,8832 | 0,8045 | 1,0197 | 0.5262 | 1.379 | 0.1555 | – | – | – | – | – | – | –
LQQLL [CPEP130] | 1.886 | 1,0055 | 0,8445 | 0,933 | 0,8513 | 0,8415 | 1,0245 | 0.7754 | 1.354 | 0.1679 | – | – | – | – | – | – | –
DILDLWIYHTQGYFPDWQ [CPEP114] | – | 0,4016 | 1,1783 | 1,017 | 1,0928 | 1,195 | 0,5539 | 1.151 | – | – | 4.359 | 1.296 | 0.2469 | – | – | – | –
LERVIFPSVKIATLV [CPEP53] | – | 0,9303 | 0,9211 | 1,0363 | 1,008 | 1,0347 | 1,0977 | 0.5248 | – | – | 0.6568 | 1.031 | 0.3466 | – | – | – | –
CPEP64: peptide of the viral peptide library; sequence page not shown (CCFHCQVCFIT) | 8.487 | 0,0708 | 0,8369 | 0,1905 | 0,9654 | 0,5226 | 0,0909 | 0.8687 | 0.8807 | 1.72 | – | – | – | – | – | – | –
TGGER [CPEP30] | 1.255 | 0,9647 | 0,957 | 0,923 | 0,8714 | 0,8974 | 0,9486 | 0.8411 | 0.8583 | 0.2042 | – | – | – | – | – | – | –
TYGTC [CPEP97] | 0.8497 | 0,8478 | 0,83 | 0,836 | 0,6842 | 0,8009 | 0,8711 | 0.4338 | 1.147 | 0.1345 | – | – | – | – | – | – | –
ACTNCYCKKCCFHCQVC [CPEP100] | – | 1,0893 | 1,092 | 1,1329 | 0,9938 | 1,0674 | 1,0274 | 1.04 | – | – | 0.1546 | 1.687 | 0.4928 | – | – | – | –
PEPTAPPEE [CPEP147] | – | – | – | – | – | – | – | 1.176 | – | – | – | – | – | – | 0.3632 | 0.5114 | 1.15
